These are literature values, as cited in publication PMC12051155 (Molecular Metabolism, 2025).

SMILES strings stand for the structures.

With `CCCCCCCCCCCCCCCC(=O)N[C@@H](CCC(=O)NCCCC[C@H](NC(=O)[C@H](C)NC(=O)[C@H](C)NC(=O)[C@H](CCC(N)=O)NC(=O)CNC(=O)[C@H](CCC(=O)O)NC(=O)[C@H](CC(C)C)NC(=O)[C@H](Cc1ccc(O)cc1)NC(=O)[C@H](CO)NC(=O)[C@H](CO)NC(=O)[C@@H](NC(=O)[C@H](CC(=O)O)NC(=O)[C@H](CO)NC(=O)[C@@H](NC(=O)[C@H](Cc1ccccc1)NC(=O)[C@@H](NC(=O)CNC(=O)[C@H](CCC(=O)O)NC(=O)[C@H](C)NC(=O)[C@@H](N)Cc1cnc[nH]1)[C@@H](C)O)[C@@H](C)O)C(C)C)C(=O)N[C@@H](CCC(=O)O)C(=O)N[C@@H](Cc1ccccc1)C(=O)N[C@H](C(=O)N[C@@H](C)C(=O)N[C@@H](Cc1c[nH]c2ccccc12)C(=O)N[C@@H](CC(C)C)C(=O)N[C@H](C(=O)N[C@@H](CCCNC(=N)N)C(=O)NCC(=O)N[C@@H](CCCNC(=N)N)C(=O)NCC(=O)O)C(C)C)[C@@H](C)CC)C(=O)O` [liraglutide], the half-life in humans is recorded as 13 h.
